The NIST ThermoML archive (doi:10.1016/j.jct.2017.07.016)
± gives the expanded uncertainty stated by the source.

Assay: xn = mol fraction of the nth substance listed
Details: 96.7 kPa, Liquid; for viscosity: Capillary tube (Ostwald / Ubbelohde) method; for mass density: Vibrating tube method

CCCCCCn1cc[n+](C)c1.[Cl-] [1-hexyl-3-methylimidazolium chloride] + CN(C)C=O
Details | mass density [kg/m3] | viscosity [mPa·s]
303.15 K, x1 = 0.134 | 974.15 ± 2.1 | 2.479 ± 0.39
303.15 K, x1 = 0.265 | 995.06 ± 2.1 | 8.757 ± 1.4
303.15 K, x1 = 0.352 | 1004.26 ± 2.1 | 20.21 ± 3.1
303.15 K, x1 = 0.457 | 1013.06 ± 2.1 | 47.11 ± 7.5
303.15 K, x1 = 0.591 | 1021.21 ± 2.1 | 158.5 ± 25
303.15 K, x1 = 0.764 | 1029.04 ± 2.2 | 666.71 ± 110
303.15 K, x1 = 0.871 | 1032.74 ± 2.2 | 2341.7 ± 390
303.15 K, x1 = 1 | 1036.07 ± 2.2 | 5718.5 ± 960
308.15 K, x1 = 0.134 | 970.01 ± 2.1 | 2.265 ± 0.35
308.15 K, x1 = 0.265 | 991.32 ± 2.1 | 7.582 ± 1.2
308.15 K, x1 = 0.352 | 1000.71 ± 2.1 | 16.69 ± 2.6
308.15 K, x1 = 0.457 | 1009.56 ± 2.1 | 38 ± 6
308.15 K, x1 = 0.591 | 1018.02 ± 2.1 | 120.91 ± 19
308.15 K, x1 = 0.764 | 1026.03 ± 2.2 | 466.32 ± 74
308.15 K, x1 = 0.871 | 1029.81 ± 2.2 | 1478.3 ± 240
308.15 K, x1 = 1 | 1033.22 ± 2.2 | 3430.8 ± 560
313.15 K, x1 = 0.134 | 965.87 ± 2.1 | 2.075 ± 0.32
313.15 K, x1 = 0.265 | 987.59 ± 2.1 | 6.651 ± 1
313.15 K, x1 = 0.352 | 997.11 ± 2.1 | 14.24 ± 2.2
313.15 K, x1 = 0.457 | 1006.09 ± 2.1 | 30.89 ± 4.8
313.15 K, x1 = 0.591 | 1014.86 ± 2.1 | 92.58 ± 15
313.15 K, x1 = 0.764 | 1023.06 ± 2.1 | 333.82 ± 52
313.15 K, x1 = 0.871 | 1026.9 ± 2.2 | 1002.9 ± 160
313.15 K, x1 = 1 | 1030.38 ± 2.2 | 2146.1 ± 350
318.15 K, x1 = 0.134 | 961.73 ± 2.1 | 1.962 ± 0.3
318.15 K, x1 = 0.265 | 983.87 ± 2.1 | 5.854 ± 0.9
318.15 K, x1 = 0.352 | 993.45 ± 2.1 | 12.13 ± 1.9
318.15 K, x1 = 0.457 | 1002.63 ± 2.1 | 25.38 ± 4
318.15 K, x1 = 0.591 | 1011.71 ± 2.1 | 72.08 ± 11
318.15 K, x1 = 0.764 | 1020.1 ± 2.1 | 241.58 ± 38
318.15 K, x1 = 0.871 | 1023.98 ± 2.2 | 685.17 ± 110
318.15 K, x1 = 1 | 1027.56 ± 2.2 | 1390.4 ± 220
323.15 K, x1 = 0.134 | 957.59 ± 2.1 | 1.797 ± 0.28
323.15 K, x1 = 0.265 | 980.14 ± 2.1 | 5.212 ± 0.8
323.15 K, x1 = 0.352 | 989.87 ± 2 | 10.45 ± 1.6
323.15 K, x1 = 0.457 | 999.19 ± 2.1 | 21.15 ± 3.3
323.15 K, x1 = 0.591 | 1008.57 ± 2.1 | 57.17 ± 8.8
323.15 K, x1 = 0.764 | 1017.14 ± 2.1 | 178.79 ± 28
323.15 K, x1 = 0.871 | 1021.09 ± 2.2 | 479.12 ± 75
323.15 K, x1 = 1 | 1024.75 ± 2.2 | 928.1 ± 150
328.15 K, x1 = 0.134 | 953.45 ± 2.1 | 1.656 ± 0.26
328.15 K, x1 = 0.265 | 976.43 ± 2.1 | 4.647 ± 0.71
328.15 K, x1 = 0.352 | 986.25 ± 2 | 9.067 ± 1.4
328.15 K, x1 = 0.457 | 995.78 ± 2.1 | 17.82 ± 2.8
328.15 K, x1 = 0.591 | 1005.44 ± 2.1 | 45.82 ± 7.1
328.15 K, x1 = 0.764 | 1014.17 ± 2.1 | 135.89 ± 21
328.15 K, x1 = 0.871 | 1018.25 ± 2.2 | 344.77 ± 54
328.15 K, x1 = 1 | 1021.92 ± 2.2 | 638.79 ± 99
333.15 K, x1 = 0.134 | 949.31 ± 2.1 | 1.544 ± 0.24
333.15 K, x1 = 0.265 | 972.72 ± 2.1 | 4.175 ± 0.64
333.15 K, x1 = 0.352 | 982.75 ± 2 | 7.933 ± 1.2
333.15 K, x1 = 0.457 | 992.43 ± 2 | 15.17 ± 2.3
333.15 K, x1 = 0.591 | 1002.31 ± 2.1 | 37.41 ± 5.7
333.15 K, x1 = 0.764 | 1011.21 ± 2.1 | 104.75 ± 16
333.15 K, x1 = 0.871 | 1015.42 ± 2.1 | 253.05 ± 39
333.15 K, x1 = 1 | 1019.13 ± 2.2 | 453.59 ± 70
338.15 K, x1 = 0.134 | 945.16 ± 2.1 | 1.426 ± 0.22
338.15 K, x1 = 0.265 | 969.01 ± 2.1 | 3.776 ± 0.58
338.15 K, x1 = 0.352 | 979.34 ± 2 | 7.016 ± 1.1
338.15 K, x1 = 0.457 | 989.15 ± 2 | 13.04 ± 2
338.15 K, x1 = 0.591 | 999.19 ± 2.1 | 30.94 ± 4.7
338.15 K, x1 = 0.764 | 1008.27 ± 2.1 | 82.3 ± 13
338.15 K, x1 = 0.871 | 1012.58 ± 2.1 | 190.24 ± 29
338.15 K, x1 = 1 | 1016.38 ± 2.2 | 327.52 ± 50
343.15 K, x1 = 0.134 | 941 ± 2.1 | 1.328 ± 0.2
343.15 K, x1 = 0.265 | 965.31 ± 2.1 | 3.431 ± 0.52
343.15 K, x1 = 0.352 | 975.92 ± 2 | 6.246 ± 0.95
343.15 K, x1 = 0.457 | 985.94 ± 2 | 11.3 ± 1.7
343.15 K, x1 = 0.591 | 996.09 ± 2.1 | 25.86 ± 4
343.15 K, x1 = 0.764 | 1005.34 ± 2.1 | 65.58 ± 10
343.15 K, x1 = 0.871 | 1009.75 ± 2.1 | 143.98 ± 22
343.15 K, x1 = 1 | 1013.65 ± 2.2 | 243.04 ± 37
348.15 K, x1 = 0.134 | 936.86 ± 2.1 | 1.244 ± 0.19
348.15 K, x1 = 0.265 | 961.62 ± 2.1 | 3.135 ± 0.48
348.15 K, x1 = 0.352 | 972.5 ± 2 | 5.564 ± 0.85
348.15 K, x1 = 0.457 | 982.8 ± 2 | 9.895 ± 1.5
348.15 K, x1 = 0.591 | 992.99 ± 2.1 | 21.85 ± 3.3
348.15 K, x1 = 0.764 | 1002.41 ± 2.1 | 52.81 ± 8
348.15 K, x1 = 0.871 | 1006.93 ± 2.1 | 112.06 ± 17
348.15 K, x1 = 1 | 1010.91 ± 2.2 | 183.45 ± 28
353.15 K, x1 = 0.134 | 932.7 ± 2.1 | 1.171 ± 0.18
353.15 K, x1 = 0.265 | 957.92 ± 2.1 | 2.875 ± 0.44
353.15 K, x1 = 0.352 | 969.09 ± 2 | 5.007 ± 0.76
353.15 K, x1 = 0.457 | 979.67 ± 2 | 8.708 ± 1.3
353.15 K, x1 = 0.591 | 989.9 ± 2 | 18.59 ± 2.8
353.15 K, x1 = 0.764 | 999.51 ± 2.1 | 43.42 ± 6.6
353.15 K, x1 = 0.871 | 1004.11 ± 2.1 | 88.51 ± 13
353.15 K, x1 = 1 | 1008.18 ± 2.2 | 140.06 ± 21
